How the values were obtained:
[1] = Nitrosamine test for API and finish product, UPLC-MS/MS; type: physicochemical; conditions: for API nitrosamine level (Nitro-P08) (based on varenicline base): initial level of API lot
Experimental: 4. Nitrosamine Test Method for API and Finish Product
UPLC-MS/MS, Thermo scientific; Orbitrap Exploris 120
4.2. Solution Preparations
4.2.2 Mobile phase A: Formic acid: Purified Water (0.1:100), transferred 500 mL purified water to 500 mL analysis bottle, then added 500 μL formic acid and well mixed. Ultrasonic Degassing for 5 min.
4.2.3 Mobile phase B: Formic acid: Methanol (0.1:100), transferred 500 mL methanol to 500 mL analysis bottle, then added 500 μL formic acid and well mixed. Ultrasonic degassing for 5 min.
4.2.4 Reference stock solution I: Weight about 2.0 mg of 8-nitroso-7,8,9,10-tetrahydro-6H-6,10-methanoazepino[4,5-g]quinoxaline (Nitro-P08) into a 100 mL volumetric flask. Dissolve with methanol and dilute to volume and well mixed (about 20 μg/mL of Nitro-P08).
4.2.5 Reference stock solution II: Accurately pipet 5.0 mL of reference stock solution I into a 200-mL volumetric flask, dilute with methanol to volume and well mixed (about 500 ng/mL of Nitro-P08).
4.2.6 Reference stock solution III: Accurately pipet 5.0 mL of reference stock solution II into a 50-mL volumetric flask, dilute with methanol to volume and well mixed (about 50 ng/mL of Nitro-P08).
4.2.7 Reference solution: Accurately pipet 1.0 mL of reference stock solution III into a 50-mL volumetric flask, dilute with methanol to volume and well mixed.
Weighted about 25 mg of sample into a 50 mL volumetric flask. Diluted to volume with Diluent and well mixed. Prepared 2 duplication in parallel.
4.2.8.2 for Finish Product
Grind 10 tablets for 1 mg strength or 20 tablets for 0.5 mg strength, accurately weigh and transfer about 0.61 g of powder (equivalent to about 5 mg of Varenicline Tartrate API) into a 50 mL stoppered test tube, add 10 mL of methanol, vortex for 1 min and treat with ultrasound for 20 min. Place it still for 10 min, take an appropriate amount of solution for centrifugation (10000 rpm, 10 min), and then take the supernatant as the test solution. Prepare in duplicates. (Note: Grind the tablets and weigh right before the test sample solution preparation.)

[2] = Particle size, Mastersizer 3000 laser particle size analyzer, wet method; type: physicochemical
Experimental: The particle size of five representative lots of varenicline tartrate was determined and the results are as follows:
Mastersizer 3000 Laser Particle Size Analyzer and Electronic Analytical Balance
3.3.1 Preparation N-hexane solution of 0.1% span 85.
3.3.2 Weigh about 0.04 g sample and add into 5 mL dispersant, and ultrasonic for 10 min.
3.4.1 Cleaning instrument.
3.4.2 The above parameters are set,
3.4.3 Reconfirm the inspection parameters.
3.4.4 Background checks are required.
3.4.5 Samples tested and each for 3 times.

[3] = particle size of varenicline tartrate lot, listed as 202010004
[4] = particle size of varenicline tartrate lot, listed as 202012002
[5] = particle size of varenicline tartrate lot, listed as 202012001
[6] = particle size of varenicline tartrate lot
[7] = API lot of compatibility study, 80 mesh

Which “Nitroso impurity [drawing 4] in bulk drug substance (API)” value ([1]; initial) does the source give for Varenicline Tartrate [Lot 202101002] here?
Its value is 1.6 ppm.

What about the “Nitroso impurity [drawing 5] in bulk drug substance (API)” value ([1]; initial) of the same substance?
The value was “<LOQ (0.0289 ppm)”.

For Varenicline Tartrate [Lot 202010004], which D10 [2, 3] is on record?
The D10 was 2.339 μm.

And the D50 [2, 3]?
The D50 was 6.354 μm.

What about the D90 [2, 3] of the same substance?
Its D90 is 11.802 μm.

For Varenicline Tartrate [Lot 202012002], which “API nitrosamine level (Nitro-P08) (based on varenicline base)” value ([1]; listed as 6B) is on record?
The value was 1.8 ppm.

What about the D10 [2, 4] of the same substance?
The D10 was 2.269 μm.

What about the D50 [2, 4] of the same substance?
Its D50 is 5.708 μm.

What about the D90 [2, 4] of the same substance?
Its D90 is 11.288 μm.

Which results are given for Varenicline Tartrate [Lot 202012001]?
D10 [2, 5]: 1.547 μm; D50 [2, 5]: 4.088 μm; D90 [2, 5]: 8.554 μm

For Varenicline Tartrate [Lot 6A], which “API nitrosamine level (Nitro-P08) (based on varenicline base)” value [1] is on record?
Its value is 7.35 ppm.

Which results are given for Varenicline Tartrate [Lot 201811001]?
Nitroso impurity [drawing 4] in bulk drug substance (API) ([1]; <30° C., >[…]): 18.3 ppm; Nitroso impurity [drawing 5] in bulk drug substance (API) ([1]; <30° C., >[…]): <LOQ (0.0289 ppm); D10 [2, 6]: 0.878 μm; D50 [2, 6]: 2.630 μm; D90 [2, 6]: 32.700 μm

Which results are given for Varenicline Tartrate [Lot 201702001]?
D10 [2, 7]: 1.1 µm; D50 [2, 7]: 3.3 µm; D90 [2, 7]: 11 µm

Which “Nitroso impurity [drawing 4] in bulk drug substance (API)” value ([1]; <30° C., >[…]) does the source give for Varenicline Tartrate [Lot 201810001] here?
The value was 7.1 ppm.

And the “Nitroso impurity [drawing 5] in bulk drug substance (API)” value ([1]; <30° C., >[…])?
Its value is “<LOQ (0.0289 ppm)”.

And the D10 [2, 6]?
Its D10 is 0.858 μm.

What about the D50 [2, 6] of the same substance?
Its D50 is 2.600 μm.

What about the D90 [2, 6] of the same substance?
Its D90 is 9.660 μm.

From patent US20230190762A1, “STABLE VARENICLINE DOSAGE FORMS” (Handa Pharma, Inc., priority 2021, published 2023)
